Measured values from patent publication US20220098257A1, “Methods of Treating Epilepsy via Phosphodiesterase 4 (PDE4) Inhibition” (Path Therapeutics, Inc., priority 2019, published 2022).
Read-outs that look alike come from different tables or passages of the source.

How the values were obtained:
scn1lab mutant zebrafish [1] = format: in vivo; details: for OCR response / bioenergetics relative to WT baseline: 40 μM dose of PDE4 inhibitor
Experimental: The scn1lab mutant zebrafish employed in this Experimental section are homozygous, loss-of-function mutants. To measure bioenergetics in whole, living zebrafish (further details of which may be found in Ibhazehiebo et al. (2018) Brain 141(3):744-761), zebrafish larvae (5 days post-fertilization, dpf) were seeded into 24-well islet capture microplates (Agilent) and pre-exposed to vehicle or drug for 20 minutes prior to the start of the assay. Oxygen consumption rates (OCR) were measured using the Seahorse Bioanalyzer (Agilent).
In a similar assay to that described above, scn1lab mutants are exposed to a 40 μM dose of a range of PDE4 inhibitors. […]

[2] = tested on: Dravet syndrome (DS) patients; details: cited from earlier work
Scn1a mutant mice = assay: Hyperthermia-induced seizures in Scn1a mutant mice; format: in vivo, mouse; details: for block of seizures (partial = seizure temperature changed; full = no seizure elicited): FIG. 15 comparison, pre-treatment with PDE4 inhibitor
Experimental: As shown in FIG. 13 (panels A and B), an example PDE4 inhibitor (AN2728) protects against hyperthermia-induced seizures in Scn1a mutant mice. In this model, a Scn1a mutant animal's core temperature is raised using an external heat source and consequently, brain temperature is raised and this leads to hyperthermic seizures. These hyperthermic seizures are thought to represent febrile seizures. In the Scn1a mutants, seizures begin around 41° C., whereas in the WT seizures are rarely detected even at temperatures as high as 43° C. […] FIG. 12B is the same data graphed differently.
A partial block in seizures is noted when the temperature required to induce a seizure is statistically different than wildtype and a full block in seizures occurs when no seizure is elicited following pre-treatment with the PDE4 inhibitor.

[3] = tested on: 6 Hz-induced psychomotor seizures; assay: 6 Hz psychomotor seizure induction mouse model; format: in vivo
Excerpt: To examine the acute effect of PDE4 inhibition on seizures, the 6 Hz psychomotor model that represents therapy-resistant limbic seizures was employed (White et al., 1995; Barton et al., 2001). Briefly, compounds were screened for their ability to block psychomotor seizures induced by a low-frequency (6 Hz), long-duration (3 sec) stimulus delivered through corneal electrodes. These seizures are believed to model partial seizures observed in humans. […]

[4] = tested on: mouse Scn1a mutant brain ex vivo slices; assay: Extracellular field recordings in mouse Scn1a mutant brain ex vivo slices; details: AN2728, 40 μM; adult Scn1a heterozygous mutant brain slices; n=3
Experimental: The mouse Scn1a mutants employed in this Experimental section were heterozygous mutants (Scn1a−/− mice die early postnatally). […] In this assay, adult Scn1a mutant brains were rapidly removed and sectioned for electrophysiological assays. Here, extracellular field recordings were conducted to measure baseline electrophysiological activity, prior to the addition of PDE4 inhibitor (AN2728, 40 μM). A decrease in hyperexcitable amplitude and frequency was measured in the presence of AN2728.

scn1lab mutant zebrafish [5] = assay: Electrophysiological recording of seizure-like hyperexcitability in the tectum opticum of scn1lab zebrafish; format: in vivo
Experimental: Briefly, 6 dpf zebrafish (WT and scn1lab mutants) were paralyzed (α-bungarotoxin, 1 mg/ml, Tocris) and embedded in agarose. The dorsal side of the zebrafish was exposed to the agarose gel surface and a glass microelectrode was placed into the tectum opticum of zebrafish and electrophysiological measurements were recorded. […] Care was taken not to disrupt the pipette or move the fish in any manner. Seizure-like activity was defined by high-frequency, large amplitude spikes, as defined elsewhere (Baraban et al, 2013). Both itcal (>1000 ms in duration) and inter-ictal (<300 ms in duration) activity was observed upon zooming in on a section of the EEG trace (data not shown), consistent with epileptiform events.

kcna1 mutant zebrafish = assay: Bioenergetics in kcna1 mutant zebrafish (model of generalizable epilepsy and SUDEP); format: in vivo
[6] = after treatment with AN2728, n=6-10

## COc1ccc([C@]2(C#N)CC[C@@H](C(=O)O)CC2)cc1OC1CCCC1 [Cilomilast, cilomilast]
scn1lab mutant zebrafish [1]
  OCR response / bioenergetics relative to WT baseline: restored OCR response to baseline levels

## C=C(C)[C@@H]1CCC(C)=C[C@H]1c1c(O)cc(CCCCC)cc1O [CBD, cannabidiol]
[2]
  patients achieving full seizure freedom: < 5%
  patients with reduced seizure frequency: 43%

## N#Cc1ccc(Oc2ccc3c(c2)COB3O)cc1 [AN2728, 5-(4-cyanophenoxy)-2,3-dihydro-1-hydroxy-2,1-benzoxaborole]
Scn1a mutant mice; AN2728 treatment
  animals that do not ever experience a seizure: 3
  protection against hyperthermia-induced seizures: protected against hyperthermia-induced seizures
Scn1a mutant mice; AN2728 treatment, untreated mutants seize around 41° C.
  temperature at which the remaining animals experience a seizure: ~42 °C
Scn1a mutant mice
  block of seizures (partial = seizure temperature changed; full = no seizure elicited): partially or fully block seizures
scn1lab mutant zebrafish [1]; AN2728 1 nM-100 nM doses, 5 dpf larvae
  OCR response relative to WT: ineffective
scn1lab mutant zebrafish [1]; AN2728 1 μM, 5 dpf larvae
  OCR response relative to WT: fully restoring OCR response to WT levels
scn1lab mutant zebrafish [1]; AN2728 10 μM, 5 dpf larvae
  OCR response relative to WT: fully restoring OCR response to WT levels
scn1lab mutant zebrafish [1]; AN2728 100 μM, 5 dpf larvae
  toxicity (drop of OCR response below mutant levels): toxic
scn1lab mutant zebrafish [1]; AN2728 dose series 1 nM-100 μM, 5 dpf larvae, 20 min pre-exposure
  restoration of bioenergetics (OCR): dose-dependent restoration of bioenergetics
[3]; dosed 30 min prior to the 6 Hz test, highest dose 300 mg/kg
  animals that responded (protected) in 6 Hz test: 1
[3]; treated two hours prior to the 6 Hz test
  animals that responded (protected) in 6 Hz test: three out of four
[4]
  hyperexcitable amplitude: decrease
  hyperexcitable frequency: decrease
scn1lab mutant zebrafish [5]; AN2728, 40 μM, 6 dpf scn1lab mutants
  seizure-like activity: blocked this seizure-like activity to baseline levels
scn1lab mutant zebrafish [5]; [6]
  peak amplitude: decrease
  seizure frequency: decrease

## Nc1nc(N)nc(-c2cc(Cl)ccc2Cl)n1 [Irsogladine, irsogladine]
scn1lab mutant zebrafish [1]
  OCR response / bioenergetics relative to WT baseline: effective in restoring bioenergetics to baseline levels

## O=C(Nc1c(Cl)cncc1Cl)c1ccc(OC(F)F)c(OCC2CC2)c1 [Roflumilast, roflumilast]
Scn1a mutant mice
  block of seizures (partial = seizure temperature changed; full = no seizure elicited): partially or fully block seizures
scn1lab mutant zebrafish [1]
  OCR response / bioenergetics relative to WT baseline: restored OCR response to baseline levels
kcna1 mutant zebrafish
  bioenergetics relative to wild-type baseline: restore bioenergetics in a kcna1 mutant zebrafish back to baseline levels

## Cn1c(=O)c2[nH]cnc2n(C)c1=O [Theophylline, theophylline]
scn1lab mutant zebrafish [1]
  OCR response / bioenergetics relative to WT baseline: effective in restoring bioenergetics to baseline levels
kcna1 mutant zebrafish
  bioenergetics relative to wild-type baseline: restore bioenergetics in a kcna1 mutant zebrafish back to baseline levels

## CCOc1ccc(/C=C2\NCCc3cc(OCC)c(OCC)cc32)cc1OCC [Drotaverine, drotaverine]
scn1lab mutant zebrafish [1]
  OCR response / bioenergetics relative to WT baseline: effective in restoring bioenergetics to baseline levels

## COc1ccc(C2CNC(=O)C2)cc1OC1CCCC1 (stereo not drawn) [Rolipram, rolipram]
Scn1a mutant mice
  block of seizures (partial = seizure temperature changed; full = no seizure elicited): partially or fully block seizures
Scn1a mutant mice; rolipram, 3 mg/kg
  protection against hyperthermia-induced seizures: neuroprotective against hyperthermia-induced seizures
  temperature required to induce a seizure: raising
Scn1a mutant mice; rolipram, 3 mg/kg, from mostly 4-5 level without treatment
  severity of the seizure, Racine scale level: 3
